Test results: patent US20240409566A1, “DELIVERY OF THERAPEUTIC ALKALOID COMPOUNDS” (priority 2022, published 2024)

Columns and labels:
[1] = Plasma stability assay, rat plasma; format: in vitro ADME
Procedure: (§1) Compound stability in rat and human plasma was measured by incubating compound with rat or human plasma at 37° C. in a microwell plate for sequential time points, monitoring pro-drug disappearance and metabolite appearance (mesembranol or 6-epi-mesembranol). A 2 mM stock solution of test compounds were prepared by dissolving appropriate amount of compounds in DMSO. The 2 mM stock was further diluted 200-folds in rat or human plasma to attain a final concentration of 10 μM respectively (0.5% DMSO). 50 μL aliquots of positive controls and test compounds spiked into rat or human plasma (n=2) were added to a pre-warmed plate (37° C.) and shaken at 50 rpm. At each respective time point, the reaction was stopped by adding 500 μL of acetonitrile containing internal standards (100 nM aprozolam, 200 nM caffeine, 100 nM tolbutamide). All samples were vortexed for 10 minutes, followed by centrifugation at 3,220 g for 30 minutes to precipitate proteins. 100 μL of the supernatant is transferred to a new plate. The supernatant will be diluted with ultrapure water according to the LC-MS signal response and peak shape. The concentrations of test compounds and positive control were quantified in the test samples using LC-MS/MS. Results reported as % of prodrug compound remaining at time point, and % of metabolite (mesembranol or 6-epi-mesembranol,) accumulated at time point.

[2] = Plasma stability assay, human plasma; format: in vitro ADME
Procedure: as §1

5-HT transporter (SERT) = 5-HT transporter (SERT) (Homo sapiens (Human), UniProt P31645); conditions: cited from earlier work

SMILES	Prodrug (%) ([1]; rat, 0 min, 10 µM)	Prodrug (%) ([1]; rat, 10 min, 10 µM)	Prodrug (%) ([1]; rat, 30 min, 10 µM)	Prodrug (%) ([1]; rat, 60 min, 10 µM)	Prodrug (%) ([1]; rat, 120 min, 10 µM)	Prodrug (%) ([1]; rat, 240 min, 10 µM)	Prodrug (%) ([2]; human, 0 min, 10 µM)	Prodrug (%) ([2]; human, 10 min, 10 µM)	Prodrug (%) ([2]; human, 30 min, 10 µM)	Prodrug (%) ([2]; human, 60 min, 10 µM)	Prodrug (%) ([2]; human, 120 min, 10 µM)	Prodrug (%) ([2]; human, 240 min, 10 µM)	further results
COc1ccc([C@@]23CC[C@@H](OC(=O)c4ccccc4)C[C@@H]2N(C)CC3)cc1OC [Compound 204, (3aS,6R,7aS)-3a-(3,4-dimethoxyphenyl)-1-methyloctahydro-1H-indol-6-yl benzoate]	–	–	–	–	–	–	–	–	–	–	–	–	Prodrug (%) ([1]; rat plasma, 37° C., 10 μM, 0 min, % prodrug remaining): 100.0%; Prodrug (%) ([1]; rat plasma, 37° C., 10 μM, 10 min, % prodrug remaining): 38.7%; Prodrug (%) ([1]; rat plasma, 37° C., 10 μM, 30 min, % prodrug remaining): 5.9%; Prodrug (%) ([1]; rat plasma, 37° C., 10 μM, 60 min, % prodrug remaining): 0.6%; Prodrug (%) ([1]; rat plasma, 37° C., 10 μM, 120 min, % prodrug remaining): 0.1%; Prodrug (%) ([1]; rat plasma, 37° C., 10 μM, 240 min, % prodrug remaining): 0.0%; Prodrug (%) ([2]; human plasma, 37° C., 10 μM, 0 min, % prodrug remaining): 100.00%; Prodrug (%) ([2]; human plasma, 37° C., 10 μM, 10 min, % prodrug remaining): 97.40%; Prodrug (%) ([2]; human plasma, 37° C., 10 μM, 30 min, % prodrug remaining): 94.26%; Prodrug (%) ([2]; human plasma, 37° C., 10 μM, 60 min, % prodrug remaining): 92.22%; Prodrug (%) ([2]; human plasma, 37° C., 10 μM, 120 min, % prodrug remaining): 93.59%; Prodrug (%) ([2]; human plasma, 37° C., 10 μM, 240 min, % prodrug remaining): 91.87%
COc1ccc([C@@]23CC[C@@H](OCOC(=O)C(C)(C)C)C[C@@H]2N(C)CC3)cc1OC [Compound 207, (((3aS,6R,7aS)-3a-(3,4-dimethoxyphenyl)-1-methyloctahydro-1H-indol-6-yl)oxy)methyl pivalate]	100.0%	26.5%	0.5%	0.0%	0.0%	0.0%	100.0%	42.0%	6.9%	1.6%	0.7%	0.1%	–
COc1ccc([C@@]23CC[C@@H](OCOC(=O)C(C)C)C[C@@H]2N(C)CC3)cc1OC [Compound 208, (((3aS,6R,7aS)-3a-(3,4-dimethoxyphenyl)-1-methyloctahydro-1H-indol-6-yl)oxy)methyl isobutyrate]	100.0%	0.0%	0.0%	0.0%	0.0%	0.0%	100.0%	0.1%	0.2%	0.2%	0.0%	0.0%	–
CCOC(=O)O[C@@H]1CC[C@@]2(c3ccc(OC)c(OC)c3)CCN(C)[C@H]2C1 [Compound 209, (3aS,6R,7aS)-3a-(3,4-dimethoxyphenyl)-1-methyloctahydro-1H-indol-6-yl ethyl carbonate]	100.0%	11.5%	0.0%	0.0%	0.0%	0.0%	100.0%	96.0%	91.8%	87.6%	84.1%	72.5%	–
CCCC(=O)OCO[C@@H]1CC[C@@]2(c3ccc(OC)c(OC)c3)CCN(C)[C@H]2C1 [Compound 210, (((3aS,6R,7aS)-3a-(3,4-dimethoxyphenyl)-1-methyloctahydro-1H-indol-6-yl)oxy)methyl butyrate]	100.0%	0.0%	0.0%	0.0%	0.1%	0.1%	100.0%	0.5%	1.0%	0.6%	0.1%	0.1%	–
COc1ccc(C23C=CC(O)CC2N(C)CC3)cc1OC (centres unmarked) [Mesembrenol]	–	–	–	–	–	–	–	–	–	–	–	–	nH, 5-HT transporter (SERT) (5-HT transporter (SERT); Hill coefficient of concentration response curves): 1.1; Ki (5-HT transporter (SERT); concentration response curves, binding): 62 nM
